This is an account of results in ChEMBL document CHEMBL3120058, “Integrated strategies for identifying leads that target the NS3 helicase of the hepatitis C virus” (J Med Chem, 2014).

A short description of experiment [1]: Inhibition of HCV H genotype 1a N-terminal hexa-histidine-tagged NS3 helicase expressed in Escherichia coli BL21(DE3) using DNA oligonucleotide duplex as substrate after 1 hr by unwinding assay. Details: species or system Hepatitis C virus (isolate H).
Experiment [2] can be described thus: Binding affinity to HCV H genotype 1a N-terminal hexa-histidine-tagged NS3 helicase expressed in Escherichia coli BL21(DE3) at pH 6.5 by circular dichroism assay. Details: species or system Hepatitis C virus (isolate H). Background: Circular dichroism is the unequal absorption of left and right circularly polarised light.
Experiment [3] is described as follows: Binding affinity to HCV H genotype 1a N-terminal hexa-histidine-tagged NS3 helicase expressed in Escherichia coli BL21(DE3) assessed as resonance peak1 by STD NMR spectroscopic analysis. The arrangement: species or system Hepatitis C virus (isolate H).
The nature of experiment [4]: Binding affinity to HCV H genotype 1a N-terminal hexa-histidine-tagged NS3 helicase expressed in Escherichia coli BL21(DE3) by isothermal titration calorimetry. Details: species or system Hepatitis C virus (isolate H).
Experiment [5] is described as follows: Selectivity ratio for HCV H genotype 1a N-terminal hexa-histidine-tagged NS3 helicase over human RNA helicase A.
The nature of experiment [6]: Binding affinity to HCV H genotype 1a N-terminal hexa-histidine-tagged NS3 helicase expressed in Escherichia coli BL21(DE3) assessed as resonance peak2 by STD NMR spectroscopic analysis. The arrangement: species or system Hepatitis C virus (isolate H).
A short description of experiment [7]: Binding affinity to HCV H genotype 1a N-terminal hexa-histidine-tagged NS3 helicase expressed in Escherichia coli BL21(DE3) in ITC/NMR buffer at pH 7.5 by circular dichroism assay. Details: species or system Hepatitis C virus (isolate H).

Usually IC50 stands for the midpoint of a concentration-inhibition curve. Read a low IC50 as greater potency. Broadly, the Kd is the constant that tells how readily two partners part at equilibrium.

Compound `O=C(O)Cc1cn(-c2ccc([N+](=O)[O-])cc2C(F)(F)F)c2ccc(Br)cc12` had an IC50 in experiment [1] of 140 µM.
In experiment [1], `O=C(O)Cc1cn(Cc2cccc([N+](=O)[O-])c2)c2ccccc12` yielded an IC50 of 46 µM.
In experiment [1], `C#Cc1cccc(Cn2cc(CC(=O)O)c3ccccc32)c1` returned an IC50 of 31 µM.
In experiment [1], `O=C(O)Cc1cn(Cc2cccc(Cl)c2)c2cc(Cl)ccc12` returned an IC50 of 94 µM.
For the compound `Cc1cccc(Cn2cc(CC(=O)O)c3ccccc32)c1`, the IC50 in experiment [1] was 85 µM.
In experiment [1], `O=C(O)Cc1cn(Cc2cccc(Cl)c2)c2cc(-c3ccccc3)ccc12` came in with an IC50 of 140 µM.
As for `O=C(O)Cc1cn(Cc2ccccc2)c2ccccc12`, the IC50 in experiment [1] came out at 240 µM.
With `Nc1cccc(Cn2cc(CC(=O)O)c3ccccc32)c1`, in experiment [1], the IC50 is > 500 µM.
`O=C(O)Cc1cn(Cc2cccc(Cl)c2)c2cc(Br)ccc12` displayed an IC50 in experiment [1] of 94 µM.
Take `O=C(O)Cc1c[nH]c2ccccc12` [INDOLE-3-ACETIC ACID]: 500 µM corresponded to half-maximal inhibition in experiment [1] (IC50).
`COc1ccc([N+](=O)[O-])cc1Cn1cc(CC(=O)O)c2ccc(-c3cc(N)cc(N)c3)cc21`: the Kd in experiment [2] is 3.5 µM; in experiment [3], 32 µM; in experiment [4], 33 µM; in experiment [6], 28 µM; in experiment [7] it was 41 µM. In addition, the Selectivity ratio in experiment [5] was 36. In experiment [1], this compound displayed an IC50 of 3 µM.
In experiment [1], `COc1ccc([N+](=O)[O-])cc1Cn1cc(CC(=O)O)c2ccccc21` displayed an IC50 of 14 µM.
In the case of `O=C(O)Cc1cn(Cc2cccc(O)c2)c2ccccc12`, the IC50 in experiment [1] was determined as 150 µM.
In the case of `Nc1cc(-c2ccc3c(CC(=O)O)cn(Cc4cccc(Cl)c4)c3c2)cc([N+](=O)[O-])c1`, the IC50 in experiment [1] stood at 140 µM.
Compound `O=C(O)Cc1cn(Cc2cccc(I)c2)c2ccccc12` had an IC50 in experiment [1] of 52 µM.
In experiment [1], `O=C(O)Cc1cn(Cc2cccc(Cl)c2)c2ccccc12` showed an IC50 of 71 µM.
As for `Nc1cc(N)cc(-c2ccc3c(CC(=O)O)cn(Cc4cccc(Cl)c4)c3c2)c1`, half-maximal inhibition in experiment [1] (IC50) required 35 µM.
